We go through one molecule from paper PMC4786250, “Effects of Intraosseous Tibial vs. Intravenous Vasopressin in a Hypovolemic Cardiac Arrest Model” (Western Journal of Emergency Medicine, 2016).

For orientation: Cmax means the highest concentration seen after dosing. A word on the Tmax: it is the time at which the peak concentration occurs.

Series [1] is described as follows: Vasopressin concentration in blood samples (HPLC-MS/MS) after tibial IO or IV administration in a hypovolemic cardiac arrest model. Format: in vivo, Yorkshire swine. To be noted: 40 units; for Cmax / Tmax / level at 1 min: Yorkshire, serum; for Cmax / Tmax: pig, mean ± standard deviation; for Cmax: during CPR, male swine 60-80 kg, 31% blood volume hemorrhage, ventricular fibrillation, femoral artery samples 0.5-4 min, HPLC-MS/MS; for Tmax / level at 1 min: male; for Tmax: SD; for level at 1 min: 60 seconds after injection, mean ± standard error, SEM. The source says: (§1) The study was a prospective, between-subjects, experimental design. The Institutional Animal Care and Use Committee (IACUC) approved the research protocol, and the animals received care in compliance with the Animal Welfare Act. Twenty-eight Yorkshire swine were randomly assigned by a computer generated random number program to one of four groups: IV + defibrillation (n=7), IO tibia + defibrillation (n=7), CPR + defibrillation (n=7), and a control group that received just CPR (n=7). Two additional swine were added in the each of the IV and IO groups for model development. These two swine meet the criteria for inclusion in the study, and no changes were necessary in the protocol. Therefore, the pigs were included in both groups to make a total of eight in both the tibial IO and IV groups. However, one pig in the IO group was ill and was deleted from the study making a total of seven in that group.
(§2) In addition, their blood volume is the same as humans: 70ml per kg of body weight.[18],[19] To avoid any variability in subjects, we purchased the swine from the same vendor and acquired pigs that were approximately the same size. Male swine were used to avoid any potential hormonal effects. Subjects weighing between 60 to 80kg were used as this range represents the average weight of an adult, human.[20] […] All subjects received no food after midnight the evening before the study but were allowed fluids as desired until the experiment
(§3) Each subject received pre-emptive analgesia with Telazol (4–8mg/kg). They were then sedated, anesthetized, intubated, and placed on mechanical ventilation. A standard Narkomed® anesthesia machine (Dräger, Telford, PA) was used to deliver isoflurane at a maintenance dose (0.5–2%) and ventilation at 8–10mL/kg at 10–14 breaths per minute. A peripheral IV was started on all subjects using an 18- or 20-gauge catheter in the auricular vein. […] Hemodynamics were evaluated continuously that included the following: electrocardiogram, arterial blood pressure via a left carotid artery catheter, mean arterial pressure, oxygen saturation, end-tidal carbon dioxide, and temperature. A forced-air warming blanket was used to sustain rectal temperature greater than 36 degrees Celsius. A Vigileo™ (Edwards Lifesciences, Irvine, CA) was used to obtain cardiac output and stroke volume measurements via the arterial line. The femoral artery was cannulated for the collection of blood samples and for the achievement of controlled hemorrhage.
(§4) For swine in the tibial IO group, we inserted an EZ-IO® device (Vidacare, San Antonio, TX) in the proximal, medial tibia. Placement was confirmed by aspiration of blood and easy irrigation with 10mL of 0.9% normal saline (NS). Patency was maintained by administering Lactated Ringer’s solution with a pressure bag at 300mmHg. Subjects were allowed to stabilize for 15 minutes; we then exsanguinated 31% of their blood volume from the femoral artery catheter into a canister. This represented a Class III hemorrhage. Hemorrhage was accomplished by allowing blood to drain by gravity over approximately 15 minutes. To ensure the amount exsanguinated was correct, the investigators used a scale that was accurate and precise within 0.5%.
(§5) In response to hypovolemic shock in accordance with Tactical Combat Casualty Care guidelines, we administered 500mL of 5% albumin to all subjects over 10 minutes.[22] Five minutes after the administration of albumin, the investigators placed the pigs in cardiac arrest, defined as a nonperfusing arrhythmia. […] The needles were attached to alligator clamps. The clamps were attached to three 9-volt batteries that were connected in a series to deliver an electrical current, thereby inducing nonperfusing ventricular fibrillation. We were able to establish ventricular fibrillation usually within 10 seconds. In some cases, we had to reposition the needles resulting in 100% being placed into ventricular fibrillation.
(§6) The pigs were allowed to remain in arrest for two minutes. […]

Series [2] relates to hypovolemic cardiac arrest model. In words: Return of spontaneous circulation (ROSC) in a hypovolemic cardiac arrest model. Format: in vivo, Yorkshire swine. To be noted: for time to ROSC: 40 units, mean ± standard deviation, SD; for Number achieving ROSC / Number not achieving ROSC: 40 units + CPR + defibrillation, up to 20 min.
Excerpt: as §1, §2, §3, §4, §5, §6

On to `NC(=O)CC[C@@H]1NC(=O)[C@H](Cc2ccccc2)NC(=O)[C@H](Cc2ccc(O)cc2)NC(=O)[C@@H](N)CSSC[C@@H](C(=O)N2CCC[C@H]2C(=O)N[C@@H](CCCN=C(N)N)C(=O)NCC(N)=O)NC(=O)[C@H](CC(N)=O)NC1=O` [vasopressin], for which the peak concentration (Cmax) turned out to be 106 ng/mL in series [1] (IV (auricular vein) push, n=8) and 58.7 ng/mL in series [1] (tibial IO push, n=7). For the same molecule, the Tmax in series [1] (IV, n=8) is 1.43 min; in series [1] (tibial IO, n=7), 2.63 min. The level at 1 min in series [1] (IV, n=8) worked out at 76.8 ng/mL; in series [1] (tibial IO, n=7), 23.6 ng/mL. The “Cmax concentration of the IO group compared to the IV group” value in series [1] (tibial IO relative to IV) is listed as 55%. Moreover, the “time to ROSC” value in series [2] (IO group (line "IO vs. CPR + defibrillation")) is 493 ± 226 s; in series [2] (IV group (line "IV vs. IO")), 559 ± 231 s. In addition, the “Odds of ROSC” value in series [2] (IO vs. CPR + defibrillation) is given as 15; in series [2] (IO vs. CPR only), 65; in series [2] (IV vs. CPR + defibrillation) it was 17.5; in series [2] (IV vs. CPR only), 75. Moreover, the “Number achieving ROSC” value was found to be 7 in series [2] (IV, N=8) and 6 in series [2] (tibial IO, N=7). Also, the “Number not achieving ROSC” value is reported as 1 in series [2] (IV, N=8) and 1 in series [2] (tibial IO, N=7).
